Reference: patent US6855507B2, “Method of screening for pharmaceuticals by detecting cross talk between intracellular signals and intranuclear receptors” (Chugai Seiyaku Kabushiki Kaisha, priority 1998, dated 2005)

Tested on: VDR and Smad3
Experiment: GST-pull down analysis of VDR and Smad3 interaction (cell-free)
Type: binding
Conditions: FIG. 5
Experimental: GST fused Smad3 or VDR (full length peptide 1-424, partial peptides: amino acid sequence 115-424, 115-357, 115-300 and others, see FIG. 4) fused proteins (GST-Smad3 or GST-VDR) were expressed by using E.coli, and were captured on beads with glutatione-Sepharose bead (Pharmacia) to accomplish affinity purification. On the other hand, ^35S-methionine-labeled Smad3 and VDR were prepared in cell-free system by using reticulocyte lysate translation system (Promega). GST-Smad3 or GST-VDR fixed on beads described above was incubated with ^35S-methionine labeled VRD or Smad3. By using polyacrylamide gel electrophoresis, ^35S-methionine labeled VDR or Smad3 were analyzed.

C=C1/C(=C\C=C2/CCC[C@]3(C)[C@@H]([C@H](C)CCCC(C)(C)O)CC[C@@H]23)C[C@@H](O)C[C@@H]1O [1,25(OH)2VD3]
binding of full length VDR to Smad3 in the presence of ligand (1 nM): slightly bound
ligand requirement of binding of VDR partial peptides 115-357 and 115-300 to Smad3: did not require
